Reference: patent publication US7834019B2, “Substituted pyrazolo[3,4-d]pyrimidinone derivatives” (Banyu Pharmaceutical Co., Ltd., priority 2006, dated 2010)

How the values were obtained:
Weel kinase = molecular target: T1, Weel kinase (Homo sapiens, UniProt P30291); assay: Weel kinase-inhibitory effect (33P-ATP filter assay with purified GST-tagged Weel kinase); type: biochemical; settings: Poly(Lys,Tyr) substrate, 10 μM ATP, 30° C. for 30 minutes
T1 construct: made in house; host or cells: Sf9 insect cells (recombinant baculovirus)
T1 sequence (P30291 whole entry): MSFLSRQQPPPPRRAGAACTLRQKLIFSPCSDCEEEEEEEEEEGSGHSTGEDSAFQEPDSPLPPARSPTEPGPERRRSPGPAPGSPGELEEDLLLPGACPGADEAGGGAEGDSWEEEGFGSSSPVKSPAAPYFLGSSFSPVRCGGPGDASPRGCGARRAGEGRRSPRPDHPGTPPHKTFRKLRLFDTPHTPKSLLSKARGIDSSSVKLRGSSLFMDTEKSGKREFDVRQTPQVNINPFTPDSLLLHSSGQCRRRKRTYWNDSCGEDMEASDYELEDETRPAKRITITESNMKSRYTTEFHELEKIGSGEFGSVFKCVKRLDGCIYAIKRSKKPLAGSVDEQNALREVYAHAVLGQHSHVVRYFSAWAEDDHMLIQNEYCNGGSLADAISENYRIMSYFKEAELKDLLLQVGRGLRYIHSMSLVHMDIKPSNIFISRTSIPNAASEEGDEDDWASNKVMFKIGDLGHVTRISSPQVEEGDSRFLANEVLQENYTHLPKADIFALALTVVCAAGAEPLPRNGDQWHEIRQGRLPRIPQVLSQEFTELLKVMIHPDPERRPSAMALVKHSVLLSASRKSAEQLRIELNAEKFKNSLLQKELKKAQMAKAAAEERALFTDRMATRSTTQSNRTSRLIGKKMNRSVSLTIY
Excerpt: Pharmaceutical Test 1 (Weel Kinase-Inhibitory Effect)
(1) Purification of Weel Kinase:
A cDNA of Weel kinase with […] (GST) fused at the amino terminal thereof was inserted into a baculovirus expression vector to construct a recombinant baculovirus, with which cells of an insect cell line Sf9 were infected for high expression therein. The infected cells were recovered and solubilized, and then the GST-tagged Weel kinase protein was adsorbed by a glutathione column, and eluted from the column with glutathione, and the active fraction was desalted in a desalting column to give a purified enzyme.
(2) Determination of Weel Kinase Activity:
In determination of the Weel kinase activity, a synthetic peptide, Poly(Lys,Tyr) Hydrobromide (Lys:Tyr (4:1)) bought from Sigma was used as the substrate.
The amount of the reaction mixture was 21.1 μL; and the composition of the reaction buffer was 50 mM Tris-HCl buffer (pH 7.4)/10 mM magnesium chloride/1 mM dithiothreitol. The purified Weel kinase, 2.5 μg of the substrate peptide, 10 μM of non-labeled adenosine triphosphate (ATP) and 1 μCi of [γ-^33P]-labeled ATP (2500 Ci/mmol or more) were added to it, and incubated at 30° C. for 30 minutes. Next, 10 μL of 350 mM phosphate buffer was added to the reaction mixture to stop the reaction. The substrate peptide was adsorbed by a P81 paper filter 96-well plate, then washed a few times with 130 mM phosphate buffer, and its radioactivity was counted with a liquid scintillation counter. The [γ-^33P]-labeled ATP was bought from Amersham Bioscience.
To add the test compound to the reaction system, the compound was diluted with dimethylsulfoxide (DMSO) to prepare a series of dilutions. 1.1 μL of each dilution was added to the reaction system. As a control, 1.1 μL of DMSO was added to the reaction system.

[1] = test system: Human colon cancer cells WiDr; assay: Tumor growth-inhibitory effect, WiDr tumor implanted subcutaneously in nude rats; type: in vivo, F344/N Jcl-mu nude rats; settings: gemcitabine 50 mg/kg intravenously alone
Description: Pharmaceutical Test 4 (Tumor Growth-Inhibitory Effect)
Human colon cancer cells WiDr (gotten from ATCC) were implanted into the subcutaneous area of the back of F344/N Jcl-mu nude rats. Eight days after the implantation, gemcitabine (50 mg/kg, Gemzar injection, Eli-Lilly) was intravenously administered to them; and after 24 hours, a test compound was dissolved in a solvent (5% glucose) and given to them through continuous intravenous injection for 8 hours. The tumor volume (0.5×(major diameter)×(minor diameter)^2) was determined on day 0, 3, 6, 10 and 13. Day 0 means the day on which gemcitabine was administered. The relative tumor volume is a relative value, as calculated on the basis of the tumor volume of 1 on day 0. The tumor growth percentage (% T/C) was obtained according to the following formula:
When the tumor volume change from day 0 in the group subjected to test compound administration is more than 0 (>0): % T/C=[(tumor volume change in the test compounds on day 3, 6, 10, 13)/(tumor volume change in the control on day 3, 6, 10, 13)]×100. When the tumor volume change from day 0 in the group subjected to test compound administration is less than 0 (<0): % T/C=[(tumor volume change in the test compounds on day 3, 6, 10, 13)/(tumor volume […])]×100.

SMILES	IC50 (Weel kinase) [nM]	also measured
C=CCn1c(=O)c2cnc(Nc3ccc(N4CCN(C)CC4)cc3)nc2n1-c1cccc(C(=O)N(C)C)c1 [Example 1, 3-(2-allyl-6-{[4-(4-methylpiperazin-1-yl)phenyl]amino}-3-oxo-1,2-dihydro-3H-pyrazolo[3,4-d]pyrimidin-1-yl)-N,N-dimethylbenzamide]	7	–
C=CCn1c(=O)c2cnc(Nc3ccc(N4CCN(C)CC4)c(CO)c3)nc2n1-c1ccsc1 [Example 3, 2-allyl-6-{[3-(hydroxymethyl)-4-(4-methylpiperazin-1-yl)phenyl]amino}-1-(3-thienyl)-1,2-dihydro-3H-pyrazolo[3,4-d]pyrimidin-3-one]	7.6	–
C=CCn1c(=O)c2cnc(Nc3ccc(N4CCN(C)CC4)cc3)nc2n1-c1cccc(CN(C)C)c1 [Example 26, 2-allyl-1-[3-(dimethylaminomethyl)phenyl]-6-{[4-(4-methylpiperazin-1-yl)phenyl]amino}-1,2-dihydro-3H-pyrazolo[3,4-d]pyrimidin-3-one]	18	–
C=CCn1c(=O)c2cnc(Nc3ccc(N4CCN(C)CC4)c(CO)c3)nc2n1-c1ccccn1 [Example 29, 2-allyl-6-{[3-hydroxymethyl-4-(4-methylpiperazin-1-yl)phenyl]amino}-1-pyridin-2-yl-1,2-dihydro-3H-pyrazolo[3,4-d]pyrimidin-3-one]	20	–
C=CCn1c(=O)c2cnc(Nc3ccc(N4CCN(C)CC4)c(C)c3)nc2n1-c1cccc(CN(C)C)n1 [Example 52, 2-allyl-1-[6-[(dimethylamino)methyl]pyridin-2-yl]-6-{[3-methyl-4-(4-methylpiperazin-1-yl)phenyl]amino}-1,2-dihydro-3H-pyrazolo[3,4-d]pyrimidin-3-one]	12	–
C=CCn1c(=O)c2cnc(Nc3ccc(N4CCN(C)CC4)c(C)c3)nc2n1-c1cccc(OCCO)n1 [Example 98, 2-allyl-1-[6-(2-hydroxyethoxy)pyridin-2-yl]-6-{[3-methyl-4-(4-methylpiperazin-1-yl)phenyl]amino}-1,2-dihydro-3H-pyrazolo[3,4-d]pyrimidin-3-one]	14	–
Nc1ccn([C@@H]2O[C@H](CO)[C@@H](O)C2(F)F)c(=O)n1 [Gemcitabine, gemcitabine, reference compound]	–	% T/C day 3 ([1]; day 3): 22%; % T/C day 6 ([1]; day 6): 31%; % T/C day 10 ([1]; day 10): 54%; % T/C day 13 ([1]; day 13): 65%

Continued, in another order:

IC50 (Weel kinase) [nM]	SMILES	also measured
8.8	C=CCn1c(=O)c2cnc(Nc3ccc(N4CCN(C)CC4)cc3)nc2n1-c1cccc(CN(C)S(C)(=O)=O)n1 [Example 99, N-{[6-(2-allyl-6-{[4-(4-methylpiperazin-1-yl)phenyl]amino}-3-oxo-1,2-dihydro-3H-pyrazolo[3,4-d]pyrimidin-1-yl)pyridin-2-yl]methyl}-N-methylmethanesulfonamide]	–
24	Cc1cc(Nc2ncc3c(=O)n(Cc4ccccc4)n(-c4ccccc4)c3n2)ccc1N1CCN(C)CC1 [Example 111, 2-benzyl-6-{[3-methyl-4-(4-methylpiperazin-1-yl)phenyl]amino}-1-phenyl-1,2-dihydro-3H-pyrazolo[3,4-d]pyrimidin-3-one]	–
6.3	C#CCn1c(=O)c2cnc(Nc3ccc(N4CCN(C)CC4)cc3)nc2n1-c1cccc(C(C)(C)O)n1 [Example 113, 1-[6-(1-hydroxy-1-methylethyl)pyridin-2-yl]-6-{[4-(4-methylpiperazin-1-yl)phenyl]amino}-2-(2-propynyl)-1,2-dihydro-3H-pyrazolo[3,4-d]pyrimidin-3-one]	–
24	CC(C)n1c(=O)c2cnc(Nc3ccc(C4CCN(C)CC4)cc3)nc2n1-c1cccc(C(C)(C)O)n1 [Example 147, 1-[6-(1-hydroxy-1-methylethyl)pyridin-2-yl]-2-isopropyl-6-{[4-(1-methylpiperidin-4-yl)phenyl]amino}-1,2-dihydro-3H-pyrazolo[3,4-d]pyrimidin-3-one]	–
17	C=CCn1c(=O)c2cnc(Nc3ccc(N4CCN(C)CC4)cc3)nc2n1-c1cccc(N2CCN(C)C2=O)n1 [Example 148, 2-allyl-1-[6-(3-methyl-2-oxoimidazolidin-1-yl)pyridin-2-yl]-6-{[4-(4-methylpiperazin-1-yl)phenyl]amino}-1,2-dihydro-3H-pyrazolo[3,4-d]pyrimidin-3-one]	–
